Article PMC2000878, “Module structure of interphotoreceptor retinoid-binding protein (IRBP) may provide bases for its complex role in the visual cycle – structure/function study of Xenopus IRBP” (BMC Biochemistry, 2007)

Columns and labels:
[1] = molecular target: X(1,2)IRBP (Xen IRBP modules 1&2) (Xenopus laevis, UniProt Q7SZI7); experiment: Fluorometric titration, retinol fluorescence enhancement, double module; format: binding; settings: ex 330 nm, em 480 nm, protein 0.67 μM
From the text: (§1) Why do the number of sites from individual modules add up to more than that detected in the full-length IRBP? Here we asked whether the number of sites within individual modules could at least predict the number in recombinant proteins consisting of two modules. We had originally anticipated that the sum of sites from individual modules would give the number in such "module pairs". However, this turned out to be not always true. We expressed and purified module combinations 1&2 and 3&4, termed X(1,2)IRBP and X(3,4)IRBP respectively. Binding of all-trans retinol to these module pairs was characterized by fluorometric titrations monitoring retinol-fluorescence enhancement (Figure 10). For X(1,2)IRBP, N = 2.45 ± 0.11 (2.40 sites were predicted from the sum of individual modules 1 plus 2). In contrast, N for X(3,4)IRBP was 1.43 ± 0.21 sites (predicted, 3.83 sites). […] That is, some sites may not be solvent exposed in the intact IRBP as they are within individual modules. […] Therefore it is plausible that some binding sites that are solvent exposed in the individual module are buried in the intact […]. To address this question, ongoing studies in our laboratories are aimed at determining the X-ray crystal structure of IRBPs composed of multiple modules.
(§2) Figure 10 Retinol binding to Xenopus IRBPs consisting of two contiguous modules. Binding of double modules IRBPs with all-trans retinol as followed during titrations by monitoring the increase in retinol fluorescence (excitation, 330 nm; emission, 480 nm). The concentration of the IRBP double module was: modules 1&2, 0.67 μM; modules 3&4, 0.57 μM.
(§3) Enhancement of retinol fluorescence and quenching of the intrinsic protein fluorescence were used to monitor binding of all-trans retinol to the recombinant IRBPs. We previously derived an equation that is generally useful for describing such quantum yield changes that are consequent upon ligand binding. This equation has been previously applied to the analysis of binding by monitoring the enhancement of retinol fluorescence. In this case, where excitation is at 330 nm and emission is monitored at 480, the fluorescence enhancement (Fenh) depends on the total retinol concentration (Rt), the dissociation constant (Kd ^all-trans), the number of retinol-binding sites per protein molecule (N) and the total protein concentration (Pt).
(§4) Assuming that there is a single type of noninteracting site on the protein, (Fenh) is expected to be linearly related to the concentration of bound retinol molecules. […]
(§5) The equation was fit to the data by nonlinear least-squares analysis. To follow the quenching of the protein's intrinsic fluorescence the excitation and emission wavelengths were set to 280 nm and 340 nm, respectively, while the protein was titrated with all-trans retinol. […]

[2] = molecular target: X(3,4)IRBP (Xen IRBP modules 3&4) (Xenopus laevis, UniProt Q7SZI7); experiment: as above; format: binding; settings: ex 330 nm, em 480 nm, protein 0.57 μM
Chain of X(3,4)IRBP (Xen IRBP modules 3&4) (Q7SZI7 618-1219): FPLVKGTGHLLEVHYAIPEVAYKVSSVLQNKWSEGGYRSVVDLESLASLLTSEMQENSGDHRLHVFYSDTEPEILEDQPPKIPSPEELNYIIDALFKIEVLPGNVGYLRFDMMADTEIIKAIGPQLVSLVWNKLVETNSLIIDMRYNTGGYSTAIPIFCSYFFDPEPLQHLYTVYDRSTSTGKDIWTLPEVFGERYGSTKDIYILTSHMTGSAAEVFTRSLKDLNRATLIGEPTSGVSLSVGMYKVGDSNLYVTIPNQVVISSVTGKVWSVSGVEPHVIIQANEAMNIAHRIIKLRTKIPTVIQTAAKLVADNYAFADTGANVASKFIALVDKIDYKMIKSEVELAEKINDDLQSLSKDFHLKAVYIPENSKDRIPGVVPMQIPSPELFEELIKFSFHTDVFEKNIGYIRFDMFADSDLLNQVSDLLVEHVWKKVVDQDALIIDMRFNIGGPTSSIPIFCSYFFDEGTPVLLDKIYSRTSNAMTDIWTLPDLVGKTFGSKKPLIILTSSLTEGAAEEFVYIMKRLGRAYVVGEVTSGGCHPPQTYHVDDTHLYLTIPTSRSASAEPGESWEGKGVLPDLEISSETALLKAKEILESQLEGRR
From the text: as §1, §2, §3, §4, §5

Chain of X(1,2)IRBP (Xen IRBP modules 1&2) (Q7SZI7 23-617): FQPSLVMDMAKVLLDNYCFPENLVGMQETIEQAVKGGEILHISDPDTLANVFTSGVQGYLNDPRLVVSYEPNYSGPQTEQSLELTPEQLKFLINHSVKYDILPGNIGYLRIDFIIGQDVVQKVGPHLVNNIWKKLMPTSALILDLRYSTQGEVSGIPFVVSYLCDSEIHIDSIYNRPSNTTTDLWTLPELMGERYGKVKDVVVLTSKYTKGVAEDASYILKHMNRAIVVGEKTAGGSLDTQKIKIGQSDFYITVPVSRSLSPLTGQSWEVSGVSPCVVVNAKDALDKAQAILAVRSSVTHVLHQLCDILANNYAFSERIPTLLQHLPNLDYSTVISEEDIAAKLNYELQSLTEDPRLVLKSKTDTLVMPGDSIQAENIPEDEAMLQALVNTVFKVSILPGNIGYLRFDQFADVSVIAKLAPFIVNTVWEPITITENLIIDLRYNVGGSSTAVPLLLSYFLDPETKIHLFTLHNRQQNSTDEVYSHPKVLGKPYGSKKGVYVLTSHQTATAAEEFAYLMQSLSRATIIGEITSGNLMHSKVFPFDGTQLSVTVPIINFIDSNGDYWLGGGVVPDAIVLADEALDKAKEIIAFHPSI

`CC1=C(/C=C/C(C)=C/C=C/C(C)=C/CO)C(C)(C)CCC1` [all-trans retinol] was tested, and the “Binding sites (N)” value [1] was 2.45 ± 0.11, the Kd [1] was 49 ± 23 nM and the “Binding sites (N)” value [2] was 1.43 ± 0.21. It also gave a Kd [2] of 190 ± 50 nM.
